Structures are written as SMILES. Where only a bound is given, the exact number is not on record here.

In this assay the target is T1, full length G2019 human LRRK2 (Homo sapiens, UniProt Q5S007, R50H).
T1 construct: made in house; host or cells: HEK293 6E cells transduced with BacMam virus (virus generated in Sf9 cells)
T1 sequence (Q5S007 with tags, fused parts or gaps R50H): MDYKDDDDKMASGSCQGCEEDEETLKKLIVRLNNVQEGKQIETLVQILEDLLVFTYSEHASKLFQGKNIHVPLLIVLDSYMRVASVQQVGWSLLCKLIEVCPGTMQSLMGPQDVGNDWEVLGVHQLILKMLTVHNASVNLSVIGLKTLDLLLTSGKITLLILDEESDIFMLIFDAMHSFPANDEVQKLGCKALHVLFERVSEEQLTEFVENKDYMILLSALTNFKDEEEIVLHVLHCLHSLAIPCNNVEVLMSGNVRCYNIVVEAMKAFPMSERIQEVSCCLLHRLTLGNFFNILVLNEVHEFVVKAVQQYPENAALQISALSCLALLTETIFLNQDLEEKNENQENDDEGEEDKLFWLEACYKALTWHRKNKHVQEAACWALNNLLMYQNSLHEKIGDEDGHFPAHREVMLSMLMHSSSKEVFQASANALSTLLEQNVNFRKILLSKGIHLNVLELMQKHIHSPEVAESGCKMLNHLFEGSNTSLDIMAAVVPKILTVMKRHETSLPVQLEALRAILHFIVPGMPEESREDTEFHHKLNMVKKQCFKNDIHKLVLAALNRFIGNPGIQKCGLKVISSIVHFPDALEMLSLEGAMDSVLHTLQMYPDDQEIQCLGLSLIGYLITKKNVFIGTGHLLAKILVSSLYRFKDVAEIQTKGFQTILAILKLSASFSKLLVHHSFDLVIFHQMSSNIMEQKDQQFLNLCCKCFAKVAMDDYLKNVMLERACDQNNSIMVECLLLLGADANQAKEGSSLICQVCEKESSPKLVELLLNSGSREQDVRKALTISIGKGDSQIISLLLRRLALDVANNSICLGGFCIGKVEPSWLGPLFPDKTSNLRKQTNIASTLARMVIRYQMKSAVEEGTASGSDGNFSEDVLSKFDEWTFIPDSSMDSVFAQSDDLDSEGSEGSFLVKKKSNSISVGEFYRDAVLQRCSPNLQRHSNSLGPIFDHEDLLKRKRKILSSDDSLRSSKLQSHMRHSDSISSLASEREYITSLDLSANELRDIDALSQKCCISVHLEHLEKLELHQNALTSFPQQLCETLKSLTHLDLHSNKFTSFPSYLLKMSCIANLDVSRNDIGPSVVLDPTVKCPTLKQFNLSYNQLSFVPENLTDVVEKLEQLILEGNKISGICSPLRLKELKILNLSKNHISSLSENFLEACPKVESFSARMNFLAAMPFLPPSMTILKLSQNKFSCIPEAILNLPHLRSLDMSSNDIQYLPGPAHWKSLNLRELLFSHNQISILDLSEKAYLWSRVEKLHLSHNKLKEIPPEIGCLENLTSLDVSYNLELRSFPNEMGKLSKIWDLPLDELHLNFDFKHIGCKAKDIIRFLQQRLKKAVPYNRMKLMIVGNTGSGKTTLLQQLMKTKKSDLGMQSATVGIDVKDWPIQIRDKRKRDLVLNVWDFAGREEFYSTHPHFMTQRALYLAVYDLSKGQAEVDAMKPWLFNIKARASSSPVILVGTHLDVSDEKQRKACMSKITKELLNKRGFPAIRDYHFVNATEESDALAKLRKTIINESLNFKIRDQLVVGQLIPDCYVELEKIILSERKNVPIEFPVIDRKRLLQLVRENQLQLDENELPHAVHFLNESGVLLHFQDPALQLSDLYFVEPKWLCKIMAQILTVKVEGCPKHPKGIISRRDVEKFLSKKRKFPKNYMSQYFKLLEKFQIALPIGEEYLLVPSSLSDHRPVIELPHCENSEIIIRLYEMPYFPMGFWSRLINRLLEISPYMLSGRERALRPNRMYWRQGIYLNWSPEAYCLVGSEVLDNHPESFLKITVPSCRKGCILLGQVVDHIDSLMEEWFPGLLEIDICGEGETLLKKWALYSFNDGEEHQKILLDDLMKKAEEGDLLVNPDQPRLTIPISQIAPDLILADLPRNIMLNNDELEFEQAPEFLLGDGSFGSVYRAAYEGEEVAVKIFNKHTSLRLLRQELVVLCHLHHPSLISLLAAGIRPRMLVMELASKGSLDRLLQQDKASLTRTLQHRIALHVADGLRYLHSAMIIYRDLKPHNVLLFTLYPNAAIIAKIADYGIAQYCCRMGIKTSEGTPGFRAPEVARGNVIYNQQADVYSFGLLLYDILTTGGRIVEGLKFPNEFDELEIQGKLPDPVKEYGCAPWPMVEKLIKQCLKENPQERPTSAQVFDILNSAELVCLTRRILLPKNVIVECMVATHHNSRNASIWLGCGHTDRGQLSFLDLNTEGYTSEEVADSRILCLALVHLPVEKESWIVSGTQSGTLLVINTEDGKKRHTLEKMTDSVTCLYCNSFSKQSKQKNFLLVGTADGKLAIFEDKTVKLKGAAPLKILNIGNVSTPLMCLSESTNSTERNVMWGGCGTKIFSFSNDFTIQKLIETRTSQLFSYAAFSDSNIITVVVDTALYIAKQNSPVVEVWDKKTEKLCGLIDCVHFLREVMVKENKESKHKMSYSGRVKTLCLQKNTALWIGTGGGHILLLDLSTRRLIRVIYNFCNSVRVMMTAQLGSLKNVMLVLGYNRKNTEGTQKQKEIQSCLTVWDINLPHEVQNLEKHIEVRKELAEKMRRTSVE
In words: Full length G2019 human LRRK2 inhibition mass spectrometry assay. The assay is classed as biochemical. Conditions: LRRKtide to phospho-LRRKtide conversion, RapidFire MS, 2 mM ATP. An outline of the steps: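 Inhibition taken as reduced LRRKtide phosphorylation, quantified by RapidFire-coupled triple-quadrupole MS as product/(product+substrate) peak area. Reaction: 2 mM ATP, 25 μM peptide, ~25 nM full-length G2019 Flag-LRRK2, Hepes pH 7.2 buffer, room temperature for 1 h. 11-point 1-in-4 dilutions from 100 μM; logistic fit gives IC50, reported as pIC50.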
As for `COCC1CCOc2nn(C3CCOCC3F)c(C)c2Nc2ncc(Cl)c(n2)N1` (single isomer, unassigned) [E357, 14-Chloro-5-(3-fluorooxan-4-yl)-11-(methoxymethyl)-4-methyl-8-oxa-2,5,6,12,16,17-hexaazatricyclo [11.3. 1.0^3,7]heptadeca-1(16),3,6,13(17),14-pentaene], the IC50 is ≤ 100 nM.

With `COC1CNc2nc(ncc2C(F)(F)F)Nc2c(nn(C3CCCOC3)c2C)OC1` (single isomer, unassigned) [E228, 10-Methoxy-4-methyl-5-(oxan-3-yl)-14-(trifluoromethyl)-8-oxa-2,5,6,12,16,17-hexaazatricyclo [11.3.1.0^3,7] heptadeca-1(17),3,6,13,15-pentaene], the IC50 is ≤ 10000 nM.

Regarding `Cc1c2c(nn1C1CCCOC1)OCC(C)CNc1nc(ncc1Cl)N2` (single isomer, unassigned) [E309, 14-Chloro-4,10-dimethyl-5-(oxan-3-yl)-8-oxa-2,5,6,12,16,17-hexaazatricyclo[11.3.1.0^3,7]heptadeca-1(16),3,6, 13(17),14-pentaene], the half-maximal inhibitory concentration (IC50) is ≤ 100 nM.

For the molecule `Cc1c2c(nn1C1CCOCC1)OC(C)CCNc1nc(ncc1Cl)N2` (single isomer, unassigned) [E114, 14-chloro-4,9-dimethyl-5-(oxan-4-yl)-8-oxa-2,5,6,12,16,17-hexaazatricyclo[11.3.1.0^3,7]heptadeca-1(16),3,6,13(17),14-pentaene], the IC50 was ≤ 100 nM.

In the case of `Cc1c2c(nn1C1CCN(C3COC3)CC1F)OCCCNc1nc(ncc1Cl)N2` (single isomer, unassigned) [E62, trans-14-chloro-5-[3-fluoro-1-(oxetan-3-yl)piperidin-4-yl]-4-methyl-8-oxa-2,5,6,12,16,17-hexaazatricyclo[11.3.1.0^3,7]heptadeca-1(16),3,6,13(17),14-pentaene], the half-maximal inhibitory concentration (IC50) was ≤ 100 nM.

`Cc1c2c(nn1C(C)(C)C#N)OCCC(C)Nc1nc(ncc1Cl)N2` (single isomer, unassigned) [E43, 2-{14-chloro-4,11-dimethyl-8-oxa-2,5,6,12,16,17-hexaazatricyclo [11.3.1.0^3,7]heptadeca-1(16),3,6,13(17),14-pentaen-5-yl}-2-methylpropanenitrile]: the concentration for half-maximal inhibition (IC50) was ≤ 10000 nM.

`Cc1c2c(nn1C1CCOC1)OCCCNc1nc(ncc1Cl)N2` (single isomer, unassigned) [E124, 14-chloro-4-methyl-5-(oxolan-3-yl)-8-oxa-2,5,6,12,16,17-hexaazatricyclo[11.3.1.0^3,7]heptadeca-1(16),3,6,13(17), 14-pentaene]: the half-maximal inhibitory concentration (IC50) was ≤ 100 nM.

For `CCC1CCOc2nn(C3COC3)c(C)c2Nc2ncc(Cl)c(n2)N1` (single isomer, unassigned) [E320, 14-Chloro-11-ethyl-4-methyl-5-(oxetan-3-yl)-8-oxa-2,5,6,12,16,17-hexaazatricyclo[11.3.1.0^3,7]heptadeca-1(16), 3,6,13(17),14-pentaene], the 50% inhibitory concentration (IC50) was ≤ 100 nM.

As for `Cc1c2c(nn1C1CC(C)OC(C)C1)OCCC(C)Nc1nc(ncc1Cl)N2` (single isomer, unassigned) [E195, 14-Chloro-5-(2,6-dimethyloxan-4-yl)-4,11-dimethyl-8-oxa-2,5,6,12,16,17-hexaazatricyclo[11.3.1.0^3,7] heptadeca-1(16),3,6,13(17),14-pentaene], the half-maximal inhibitory concentration (IC50) was ≤ 100 nM.

On to `COC(C)c1c2c(nn1C1CCOCC1)OCC[C@@H](C)Nc1nc(ncc1Cl)N2` (stereo partly drawn) [E409, (11R)-14-Chloro-4-(1-methoxyethyl)-11-methyl-5-(oxan-4-yl)-8-oxa-2,5,6,12,16,17-hexaazatricyclo[11.3.1.0^3,7]heptadeca-1(17),3,6,13,15-pentaene], for which the concentration for half-maximal inhibition (IC50) is ≤ 10000 nM.

With `Cc1c2c(nn1C1CCC(C)CC1)OCCC(C)Nc1nc(ncc1Cl)N2` (single isomer, unassigned) [E260, 14-Chloro-4,11-dimethyl-5-(4-methylcyclohexyl)-8-oxa-2,5,6,12,16,17-hexaazatricyclo[11.3.1.0^3,7] heptadeca-1(16),3,6,13(17),14-pentaene], the IC50 was ≤ 100 nM.

Take `Cc1c2c(nn1C(C)C1CCOCC1)OCCCNc1nc(ncc1Cl)N2` (single isomer, unassigned) [E187, 14-Chloro-4-methyl-5-[1-(oxan-4-yl)ethyl]-8-oxa-2,5,6,12,16,17-hexaazatricyclo[11.3.1.0^3,7]heptadeca-1(16), 3,6,13(17),14-pentaene]: the IC50 was ≤ 100 nM.

On to `COCC1CCOc2nn(C3CCOCC3F)c(C)c2Nc2ncc(Cl)c(n2)N1` (single isomer, unassigned) [E353, 14-Chloro-5-(3-fluorooxan-4-yl)-11-(methoxymethyl)-4-methyl-8-oxa-2,5,6,12,16,17-hexaazatricyclo [11.3. 1.0^3,7]heptadeca-1(16),3,6,13(17),14-pentaene], for which the IC50 is ≤ 100 nM.

`Cc1c2c(nn1C1CCC(C(F)(F)F)CC1)OCCC(C)Nc1nc(ncc1Cl)N2` (single isomer, unassigned) [E280, 4-Chloro-4,11-dimethyl-5-[4-(trifluoromethyl)cyclohexyl]-8-oxa-2,5,6,12,16,17-hexaazatricyclo[11.3.1.0^3,7] heptadeca-1(16),3,6,13(17),14-pentaene]: the IC50 is ≤ 10000 nM.

As to `Cc1c2c(nn1C1CCOCC1)OCCC(CF)Nc1nc(ncc1Cl)N2` (single isomer, unassigned) [E53, 14-chloro-11-(fluoromethyl)-4-methyl-5-(oxan-4-yl)-8-oxa-2,5,6,12, 16,17-hexaazatricyclo[11.3.1.0^3,7]heptadeca-1(16),3,6,13(17),14-pentaene], the IC50 was ≤ 10000 nM.

As to `Cc1c2c(nn1C1CCCOC1)OCCCNc1nc(ncc1Cl)N2` (single isomer, unassigned) [E11, 14-Chloro-4-methyl-5-(oxan-3-yl)-8-oxa-2,5,6,12,16,17-hexaaza tricyclo-[11.3.1.0^3,7]heptadeca-1(16),3,6,13(17),14-pentaene], the IC50 was ≤ 100 nM.

For `Cc1c2c(nn1C1CCOCC1)OCCNc1nc(ncc1Cl)N2` [E138, 13-Chloro-4-methyl-5-(oxan-4-yl)-8-oxa-2,5,6,11,15,16-hexaaza tricyclo[10.3.1.0^3,7]hexadeca-1(15),3,6,12(16),13-pentaene], the half-maximal inhibitory concentration (IC50) was ≤ 10000 nM.

`Cc1c2c(nn1C1CC3CCC(C1)O3)OCCC(C)Nc1nc(ncc1Cl)N2` (single isomer, unassigned) [E250, 14-Chloro-4,11-dimethyl-5-{8-oxabicyclo[3.2.1]octan-3-yl}-8-oxa-2,5,6,12,16,17-hexaazatricyclo[11.3.1.0^3,7] heptadeca-1(16),3,6,13(17),14-pentaene]: the IC50 was ≤ 10000 nM.

For `COC1CNc2nc(ncc2Cl)Nc2c(nn(CC3(C)COC3)c2C)OC1` (single isomer, unassigned) [E273, 14-Chloro-10-methoxy-4-methyl-5-[(3-methyloxetan-3-yl)methyl]-8-oxa-2,5,6,12,16,17-hexaazatricyclo [11.3.1.0^3,7]heptadeca-1(16),3,6,13(17),14-pentaene], the concentration for half-maximal inhibition (IC50) was ≤ 10000 nM.

Turning to `Cc1c2c(nn1C1CCC(N3CCC(F)C3)CC1)OCCCNc1nc(ncc1Cl)N2` (single isomer, unassigned) [E154, 14-Chloro-5-[4-(3-fluoropyrrolidin-1-yl)cyclohexyl]-4-methyl-8-oxa-2,5,6,12,16,17-hexaazatricyclo[11.3.1. 0^3,7]heptadeca-1(16),3,6,13(17),14-pentaene], the IC50 is ≤ 100 nM.

One may read the IC50 as the midpoint of a concentration-inhibition curve. High values mean weaker potency in that assay, low ones greater potency in that assay.
